# Legend:
# [1] = Human liver microsome stability; type: in vitro ADME; conditions: human liver microsomes
# [2] = Mouse liver microsome stability; type: in vitro ADME; conditions: mouse liver microsomes
# [3] = Human plasma stability; type: in vitro ADME; conditions: 120 min
# [4] = Mouse plasma stability; type: in vitro ADME; conditions: 120 min
# [5] = In vivo pharmacokinetics in mice; set-up: species or system mouse; conditions: for time until brain level fell below target therapeutic level: mice, single 10 mg/kg IV dose, target 30 ng/g for 11 and 13B, 120 ng/g for 12; for clearance: male, CD-1, mouse, plasma, iv, 10 mg/kg
# [6] = pH 7.4
Hplasma stability [3],Mplasma stability [4],time until brain level fell below target therapeutic level [5],Compound,other results
,,,N-(4-fluoro-4-methylcyclohexyl)-6-phenylhexanamide [Compound 18],t1/2 HLM [1]: 10.2 min; t1/2 MLM [2]: 2.8 min
95 % @ 120 min,100 % @ 120 min,,"CC1CCCCC1NC(=O)NCCCc1nnc(C2CC2)n1-c1ccccc1 (centres unmarked) [Compound 2, 1-(3-(5-cyclopropyl-4-phenyl-4H-1,2,4-triazol-3-yl)propyl)-3-(2-methylcyclohexyl)urea]",
,,greater than 2 hour,"O=C(CCCCCc1ccccc1)N[C@H]1CC[C@H](O)CC1 [Compound 13B, N-(trans-4-hydroxycyclohexyl)-6-phenylhexanamide]",
,,1 h,"O=C(NCCCCc1ccccc1)NC1CCC(O)CC1 (centres unmarked) [Compound 12, 1-(4-hydroxycyclohexyl)-3-(4-phenylbutyl)urea]",clearance [5]: 29.5 mL/min/kg
98 % @ 120 min,84 % @ 120 min,,"1-(3-(5-cyclopropyl-4-phenyl-4H-1,2,4-triazol-3-yl)propyl)-3-(2-methylcyclohexyl)urea [Compound 3]",t1/2 HLM [1]: 8 min; t1/2 MLM [2]: 3 min; Solubility [6]: 24
,,1 h,"CC1CC(O)CCC1NC(=O)NCCCCc1ccccc1 (centres unmarked) [Compound 11, 1-(4-hydroxy-2-methylcyclohexyl)-3-(4-phenylbutyl)urea]",clearance [5]: 63.9 mL/min/kg
95 % @ 120 min,94 % @ 120 min,,"CC1CCCCC1NC(=O)NCCSc1nnc(C2CC2)n1-c1ccccc1 (centres unmarked) [Compound 1, 1-(2-((5-cyclopropyl-4-phenyl-4H-1,2,4-triazol-3-yl)thio)ethyl)-3-(2-methylcyclohexyl)urea, reference compound]",half-life at 1 μM [2]: 2 min

# — PMC7731667 (Journal of medicinal chemistry, 2020)
